Assay: tail vein bleeding time
Assay type: in vivo, mouse
Settings: GMI-1271 alone, 20/kg IP BID; non-treated controls 53.8±7.5; not significantly elevated

- tail bleeding time: 67.00 ± 44 s
Structure (SMILES): CC[C@H]1C[C@@H](C(=O)NCCNC(=O)CCOCCOCCOCCOCCOCCOCCOCCOCCOCCOCCOCCOC)C[C@@H](O[C@@H]2O[C@H](CO)[C@H](O)[C@H](O[C@@H](CC3CCCCC3)C(=O)[O-])[C@H]2NC(C)=O)[C@@H]1O[C@@H]1O[C@@H](C)[C@@H](O)[C@@H](O)[C@@H]1O.[Na+] [GMI-1271]

— patent publication US20160331775A1, “E-SELECTIN INHIBITION WORKS IN COMBINATION WITH LOW-MOLECULAR WEIGHT HEPARIN TO DECREASE VENOUS THROMBOSIS AND BLEEDING RISK” (THE REGENTS OF THE UNIVERSITY OF MICHIGAN, priority 2015, published 2016)
